Data: PubChem BioAssay (NCI)
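48-hour exposure; five concentrations; linearly interpolated endpoints. Here, GI50 denotes the concentration required for 50% inhibition of growth. TGI: concentration producing complete growth inhibition.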

Key:
Experiment in all cases: NCI-60 cell line screen, 48 h
[1] = system: 786-0 renal
[2] = system: A498 renal
[3] = system: A549 NSCLC
[4] = system: ACHN renal
[5] = system: BT-549 breast
[6] = system: CAKI-1 renal
[7] = system: COLO 205 colon
[8] = system: DU-145 prostate
[9] = system: EKVX NSCLC
[10] = system: HCC-2998 colon
[11] = system: HCT-15 colon
[12] = system: HL-60(TB) leukemia
[13] = system: HOP-62 NSCLC
[14] = system: HOP-92 NSCLC
[15] = system: HS 578T breast
[16] = system: HT29 colon
[17] = system: IGROV1 ovarian
[18] = system: K-562 leukemia
[19] = system: KM12 colon
[20] = system: M14 melanoma
[21] = system: MALME-3M melanoma
[22] = system: MCF7 breast
[23] = system: MDA-MB-231 breast
[24] = system: MDA-MB-435
[25] = system: MDA-MB-468 breast
[26] = system: MOLT-4 leukemia
[27] = system: NCI-H226 lung
[28] = system: NCI-H23 lung
[29] = system: NCI-H460 lung
[30] = system: NCI-H522 lung
[31] = system: NCI/ADR-RES ovarian
[32] = system: OVCAR-3 ovarian
[33] = system: OVCAR-4 ovarian
[34] = system: OVCAR-5 ovarian
[35] = system: OVCAR-8 ovarian
[36] = system: PC-3 prostate
[37] = system: RPMI-8226 leukemia
[38] = system: RXF 393 renal
[39] = system: SF-268 CNS
[40] = system: SF-295 CNS
[41] = system: SF-539 CNS
[42] = system: SK-MEL-2 melanoma
[43] = system: SK-MEL-28 melanoma
[44] = system: SK-MEL-5 melanoma
[45] = system: SK-OV-3 ovarian
[46] = system: SN12C renal
[47] = system: SNB-19 CNS
[48] = system: SNB-75 CNS
[49] = system: SR leukemia
[50] = system: SW-620 colon
[51] = system: T-47D breast
[52] = system: TK-10 renal
[53] = system: U251 CNS
[54] = system: UACC-257 melanoma
[55] = system: UACC-62 melanoma
[56] = system: UO-31 renal

`COc1ccc(-c2nc(Nc3ccccc3S(N)(=O)=O)c3ccccc3n2)cc1` showed a GI50 [1] of 3.75 µM, a TGI [1] of 14.6 µM and a GI50 [2] of 10.5 µM. For the same molecule, the TGI [2] was 57.6 µM, the GI50 [3] was 3.7 µM and the TGI [3] was 30.9 µM. It also gave a GI50 [4] of 6.39 µM, a TGI [4] of 28.3 µM and a GI50 [5] of 22.5 µM. The TGI [5] was over 100 µM, the GI50 [6] was 3.93 µM and the TGI [6] was 42.5 µM. The GI50 [7] was 5.29 µM, the TGI [7] was over 100 µM and the GI50 [8] was 4.67 µM. For the same molecule, the TGI [8] was 32.9 µM, the GI50 [9] was 5.35 µM and the TGI [9] was 28.4 µM. For the same molecule, the GI50 [10] was 3.46 µM, the TGI [10] was 13.7 µM and the GI50 [11] was 3.74 µM. The TGI [11] was 13.4 µM, the GI50 [12] was over 100 µM and the TGI [12] was over 100 µM. The GI50 [13] was 12.8 µM, the TGI [13] was 45.4 µM and the GI50 [14] was 7.68 µM. It also gave a TGI [14] of 71.3 µM, a GI50 [15] of 4.28 µM and a TGI [15] of over 100 µM. It also gave a GI50 [16] of 4 µM, a TGI [16] of 32.2 µM and a GI50 [17] of 99.2 µM. For the same molecule, the TGI [17] was over 100 µM, the GI50 [18] was 4.49 µM and the TGI [18] was over 100 µM. The GI50 [19] was 4.27 µM, the TGI [19] was over 100 µM and the GI50 [20] was 6.06 µM. It also gave a TGI [20] of over 100 µM, a GI50 [21] of 5.24 µM and a TGI [21] of 50.4 µM. The GI50 [22] was 2.55 µM, the TGI [22] was 15.1 µM and the GI50 [23] was 2.14 µM. For the same molecule, the TGI [23] was 5.77 µM, the GI50 [24] was 4.36 µM and the TGI [24] was over 100 µM. It also gave a GI50 [25] of 2.55 µM, a TGI [25] of 8.01 µM and a GI50 [26] of 4.41 µM. For the same molecule, the TGI [26] was over 100 µM, the GI50 [27] was 2.04 µM and the TGI [27] was 7.13 µM. It also gave a GI50 [28] of 2.4 µM, a TGI [28] of 7.91 µM and a GI50 [29] of 2.79 µM. It also gave a TGI [29] of 8.9 µM, a GI50 [30] of 4.19 µM and a TGI [30] of 25.7 µM. It also gave a GI50 [31] of 3.19 µM, a TGI [31] of 16.6 µM and a GI50 [32] of 14.3 µM. The TGI [32] was over 100 µM, the GI50 [33] was 28.9 µM and the TGI [33] was over 100 µM. It also gave a GI50 [34] of 46.1 µM, a TGI [34] of over 100 µM and a GI50 [35] of 6.41 µM. For the same molecule, the TGI [35] was over 100 µM, the GI50 [36] was 7.21 µM and the TGI [36] was over 100 µM. For the same molecule, the GI50 [37] was 4.35 µM, the TGI [37] was over 100 µM and the GI50 [38] was 1.91 µM. It also gave a TGI [38] of 7.27 µM, a GI50 [39] of 3.62 µM and a TGI [39] of 32.1 µM. It also gave a GI50 [40] of 3 µM, a TGI [40] of 13.2 µM and a GI50 [41] of 3.05 µM. The TGI [41] was 12.2 µM, the GI50 [42] was over 100 µM and the TGI [42] was over 100 µM. For the same molecule, the GI50 [43] was 7.31 µM, the TGI [43] was over 100 µM and the GI50 [44] was 2.76 µM. It also gave a TGI [44] of 10.4 µM, a GI50 [45] of 15.7 µM and a TGI [45] of 71.3 µM. It also gave a GI50 [46] of over 100 µM, a TGI [46] of over 100 µM and a GI50 [47] of 18 µM. The TGI [47] was 63.3 µM, the GI50 [48] was 2.32 µM and the TGI [48] was over 100 µM. The GI50 [49] was 6.28 µM, the TGI [49] was over 100 µM and the GI50 [50] was 4.19 µM. For the same molecule, the TGI [50] was 97.9 µM, the GI50 [51] was 3.47 µM and the TGI [51] was over 100 µM. For the same molecule, the GI50 [52] was 21.7 µM, the TGI [52] was 81.3 µM and the GI50 [53] was 3.31 µM. It also gave a TGI [53] of 14.2 µM, a GI50 [54] of over 100 µM and a TGI [54] of over 100 µM. For the same molecule, the GI50 [55] was 8.84 µM, the TGI [55] was over 100 µM and the GI50 [56] was 9.42 µM. For the same molecule, the TGI [56] was 33.4 µM.
